Test results as given in patent US20260138990A1, “TRICYCLIC FUSED IMIDAZOLE COMPOUNDS AS CD38 MODULATORS AND USES THEREOF” (AEOVIAN PHARMACEUTICALS, INC., priority 2023, published 2026).

Columns and labels:
human CD38 = biological target: T1, human CD38 (Homo sapiens, UniProt P28907); experiment: NAD+ cyclase activity assay with human recombinant CD38 protein (ε-NAD fluorescence); type: biochemical; conditions: 1.9 nM human CD38, substrate ε-NAD, 30 min preincubation, fluorescence 300/410 nm
T1 construct: purchased Bio-Techne GmbH AVI2404
T1 sequence (P28907 1-300): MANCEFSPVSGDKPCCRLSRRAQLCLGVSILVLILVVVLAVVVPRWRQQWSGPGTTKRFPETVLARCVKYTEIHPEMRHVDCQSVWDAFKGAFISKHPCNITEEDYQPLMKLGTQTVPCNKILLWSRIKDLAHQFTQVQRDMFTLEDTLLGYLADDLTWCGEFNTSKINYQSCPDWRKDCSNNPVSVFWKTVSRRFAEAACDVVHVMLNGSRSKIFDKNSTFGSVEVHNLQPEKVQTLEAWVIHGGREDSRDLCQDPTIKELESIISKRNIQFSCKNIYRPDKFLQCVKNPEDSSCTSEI
Method: (§1) Example 4: NAD^+ Cydase Activity Assay with Human or Mouse Recombinant CD38 Protein
(§2) The following assay was used to determine the ability of compounds of the invention to inhibit the hydrolysis of NAD^+ by the human or mouse enzyme, CD38.
(§3) Reaction buffer: 40 mM HEPES/NaOH pH 7.5, 250 mM sucrose, 0.01% Tween
(§4) Final concentrations: 0.6 nM mouse CD38 (4947-AC, Bio-Techne GmbH) 1.9 nM human CD38 (AVI2404, Bio-Techne GmbH)
(§5) Substrate: […] Nicotinamide 1,N6-ethenoadenine dinucleotide (&-NAD)
(§6) Read-out: Fluorescence intensity (extinction 300 nm/emission 410 nm)
(§7) Required reaction buffer, required CD38 concentration in reaction buffer and required e-NAD concentration in reaction buffer were prepared. Thereafter, 8 μL of CD38 in reaction buffer was added to High Control and compound concentration wells in 384 well plate (Corning #4514, 384 well, nonbinding surface, low volume, round bottom) and 8 μL of reaction buffer to Low Control. Compound dilutions were transferred via pintool technology that transfers 42.5 nL compound dilutions (12-point dose-response with factor three dilutions in 100% DMSO) well-to-well. Plate was subsequently shaken for 15 s at 1450 rpm and sealed for incubation for 30 min at room temperature. Thereafter, 2 μL of e-NAD in reaction buffer were added with Integra Voyager. After shaking for 15 s at 1450 rpm, plate was sealed, and assay signal were measured continuously with PHERAstar® fluorescence intensity module (extinction 300 nm/emission 410 nm).
(§8) Dose-response curves were constructed using twelve-pointfactor three dilutions in triplicates per plate. High control (full enzyme activity) was set to assay signal of CD38 and e-NAD in presence of vehicle (DMSO) and Low control (full enzyme inhibition) was set to assay signal of e-NAD and vehicle (DMSO) in absence of CD38. For data analysis, fluorescent signal of traces corresponding to each compound concentration and High and Low control were monitored over time. Each run, High Control (full enzyme activity) was fitted to Linear equation via GraphPad Prism to determine CD38 activity from the slope and determine the time interval of linear phase of reaction to account for minor fluctuations. Thereafter, slopes of all compound concentrations were determined via fitting to same linear equation (GraphPad Prism) over the same time interval as determined for High control. […] Unless otherwise stated, fitting of curves were fixed to 100%-inhibition and unlocked for 0%-inhibition.

mouse CD38 = biological target: T2, mouse CD38 (Mus musculus, UniProt P56528); experiment: NAD+ cyclase activity assay with mouse recombinant CD38 protein (ε-NAD fluorescence); type: biochemical; conditions: 0.6 nM mouse CD38, substrate ε-NAD, 30 min preincubation, fluorescence 300/410 nm
T2 construct: purchased Bio-Techne GmbH 4947-AC
T2 sequence (P56528 1-304): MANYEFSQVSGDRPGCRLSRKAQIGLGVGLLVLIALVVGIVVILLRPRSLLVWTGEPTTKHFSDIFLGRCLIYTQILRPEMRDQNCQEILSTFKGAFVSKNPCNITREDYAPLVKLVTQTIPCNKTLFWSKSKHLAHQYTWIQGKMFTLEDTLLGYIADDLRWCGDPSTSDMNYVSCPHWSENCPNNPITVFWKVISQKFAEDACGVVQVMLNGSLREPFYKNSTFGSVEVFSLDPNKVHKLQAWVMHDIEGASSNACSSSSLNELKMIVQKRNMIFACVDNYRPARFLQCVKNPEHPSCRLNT
Method: as §1, §2, §3, §4, §5, §6, §7, §8

Row | SMILES | IC50 (human CD38) [nM] | IC50 (mouse CD38) [nM]
1 | O=C(Nc1ccc2ncoc2c1)c1ccc2c(c1)-c1cncn1CCO2 [Compound 39A, N-(Benzo[d]oxazol-6-yl)-5,6-dihydrobenzo[f]imidazo[1,5-d][1,4]oxazepine-10-carboxamide] | < 30 | 1 to 10
2 | O=C(NC1CCCC(C(F)(F)F)C1)c1cc(F)c2c(c1)-c1cncn1CCO2 (centres unmarked) [Compound 161A, 8-Fluoro-N-(3-(trifluoromethyl)cyclohexyl)-5,6-dihydrobenzo[f]imidazo[1,5-d][1,4]oxazepine-10-carboxamide] | < 30 | 1 to 10
3 | O=C(N[C@H]1CC[C@H](CN2CC(F)(F)C2)CC1)c1ccc2c(c1)-c1cncn1CCO2 [Compound 105A, N-((1r,4r)-4-((3,3-Difluoroazetidin-1-yl)methyl)cyclohexyl)-5,6-dihydrobenzo[f]imidazo[1,5-d][1,4]oxazepine-10-carboxamide] | 30 to 100 | 1 to 10
4 | O=C(NC1CC(F)(F)C1)c1ccc2c(c1)-c1cncn1CCO2 [Compound 84A, N-(3,3-Difluorocyclobutyl)-5,6-dihydrobenzo[f]imidazo[1,5-d][1,4]oxazepine-10-carboxamide] | < 30 | 1 to 10
5 | O=C(N[C@H]1CCCC(F)(F)C1)c1ccc2c(c1)-c1cncn1CCO2 [Compound 117A, (S)—N-(3,3-Difluorocyclohexyl)-5,6-dihydrobenzo[f]imidazo[1,5-d][1,4]oxazepine-10-carboxamide] | 30 to 100 | 1 to 10
6 | CC(C)(N[C@H]1CC[C@H](NC(=O)c2ccc3c(c2)-c2cncn2CCO3)CC1)C(F)(F)F [Compound 88A, N-((1r,4r)-4-((1,1,1-Trifluoro-2-methylpropan-2-yl)amino)cyclohexyl)-5,6-dihydrobenzo[f]imidazo[1,5-d][1,4]oxazepine-10-carboxamide] | < 30 | < 1
7 | O=C(N[C@H]1CC[C@H](OCCCF)CC1)c1ccc2c(c1)-c1cncn1CCO2 [Compound 80A, N-((1r,4r)-4-(3-Fluoropropoxy)cyclohexyl)-5,6-dihydrobenzo[f]imidazo[1,5-d][1,4]oxazepine-10-carboxamide] | < 30 | 1 to 10
8 | CC(C)(F)CN[C@H]1CC[C@H](NC(=O)c2ccc3c(c2)-c2cncn2CCO3)CC1 [Compound 83A, N-((1r,4r)-4-((2-Fluoro-2-methylpropyl)amino)cyclohexyl)-5,6-dihydrobenzo[f]imidazo[1,5-d][1,4]oxazepine-10-carboxamide] | 100 to 1000 | 10 to 100
9 | O=C(Nc1cnc(OCCCF)nc1)c1ccc2c(c1)-c1cncn1CCO2 [Compound 102A, N-(2-(3-Fluoropropoxy)pyrimidin-5-yl)-5,6-dihydrobenzo[f]imidazo[1,5-d][1,4]oxazepine-10-carboxamide] | < 30 | 1 to 10
10 | O=C(Nc1cnc(OCCC(F)(F)F)nc1)c1ccc2c(c1)-c1cncn1CCO2 [Compound 104A, N-(2-(3,3,3-Trifluoropropoxy)pyrimidin-5-yl)-5,6-dihydrobenzo[f]imidazo[1,5-d][1,4]oxazepine-10-carboxamide] | < 30 | 1 to 10
11 | CC(=O)N[C@H]1CC[C@H](NC(=O)c2ccc3c(c2)-c2cncn2CCO3)CC1 [Compound 60A, N-((1r,4r)-4-Acetamidocyclohexyl)-5,6-dihydrobenzo[f]imidazo[1,5-d][1,4]oxazepine-10-carboxamide] | 100 to 1000 | 1 to 10
12 | O=C(Nc1cnc(NCC(F)(F)F)nc1)c1ccc2c(c1)-c1cncn1CCO2 [Compound 100A, N-(2-((2,2,2-Trifluoroethyl)amino)pyrimidin-5-yl)-5,6-dihydrobenzo[f]imidazo[1,5-d][1,4]oxazepine-10-carboxamide] | < 30 | 1 to 10
13 | COCCO[C@H]1CC[C@H](NC(=O)c2ccc3c(n2)-n2cncc2CCO3)CC1 [Compound 70A, N-((1r,4r)-4-(2-Methoxyethoxy)cyclohexyl)-6,7-dihydroimidazo[1,5-d]pyrido[3,2-b][1,4]oxazepine-2-carboxamide] | 100 to 1000 | 10 to 100
